Reference: US20210122730A1, “GLUCOCORTICOID RECEPTOR MODULATORS” (ORIC Pharmaceuticals, Inc., priority 2017, published 2021)

These compounds were tested against T1, GR (Homo sapiens, UniProt P04150) (assay: In Vitro GR Luciferase Reporter Assay (antagonist mode, CHO-K1-GR-MMTV-Luc reporter cells)). Conditions: antagonist assay with 10 nM Dexamethasone, 18-24 hours.
T1 construct: expressed in transfected cells; host or cells: CHO-K1
T1 sequence (P04150 1-777): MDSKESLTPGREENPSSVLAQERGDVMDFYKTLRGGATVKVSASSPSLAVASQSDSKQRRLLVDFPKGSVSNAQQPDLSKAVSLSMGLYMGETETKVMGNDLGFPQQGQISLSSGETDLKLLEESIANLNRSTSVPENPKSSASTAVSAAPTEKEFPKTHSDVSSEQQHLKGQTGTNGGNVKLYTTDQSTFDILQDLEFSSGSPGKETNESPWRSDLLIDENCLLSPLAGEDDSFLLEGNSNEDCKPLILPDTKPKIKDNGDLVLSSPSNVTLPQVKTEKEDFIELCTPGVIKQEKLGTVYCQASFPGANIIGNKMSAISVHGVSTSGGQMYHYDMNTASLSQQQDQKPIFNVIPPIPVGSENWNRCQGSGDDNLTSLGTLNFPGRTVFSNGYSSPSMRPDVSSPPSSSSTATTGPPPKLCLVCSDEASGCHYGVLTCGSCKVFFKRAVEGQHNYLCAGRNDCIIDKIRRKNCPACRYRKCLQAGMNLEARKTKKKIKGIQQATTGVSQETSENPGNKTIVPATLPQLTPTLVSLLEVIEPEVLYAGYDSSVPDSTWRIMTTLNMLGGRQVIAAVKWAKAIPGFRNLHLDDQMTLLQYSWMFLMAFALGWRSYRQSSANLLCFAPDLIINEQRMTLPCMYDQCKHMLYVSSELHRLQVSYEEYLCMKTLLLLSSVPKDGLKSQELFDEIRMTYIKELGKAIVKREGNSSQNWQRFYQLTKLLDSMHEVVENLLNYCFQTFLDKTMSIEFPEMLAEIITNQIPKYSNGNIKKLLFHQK
Format: cell-based
How it was run: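 Antagonist mode: compounds (8 serial 1:5 dilutions) added to GR-MMTV-luciferase CHO-K1 reporter cells co-exposed to 10 nM dexamethasone final, in phenol red-free DMEM plus 10% CSS. After roughly 18-24 h at 37° C, OneGlo luminescence read and IC50 calculated.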

IC50	SMILES
≤ 0.1 µM	Cc1ccnc(C(=O)[C@]23Cc4cnn(-c5ccc(F)cc5)c4C=C2CC[C@H](S(=O)(=O)c2cnn(C)n2)C3)c1 [Example 39, ((4aS,6S)-1-(4-fluorophenyl)-6-((2-methyl-2H-1,2,3-triazol-4-yl)sulfonyl)-1,4,5,6,7,8-hexahydro-4aH-benzo[f]indazol-4a-yl)(4-methylpyridin-2-yl)methanone]
≤ 0.1 µM	O=C(c1ccccn1)[C@]12Cc3cnn(-c4ccc(F)cc4)c3C=C1CC[C@H](S(=O)(=O)c1ccc(F)c(F)c1)C2 [Example 22, ((4aS,6S)-6-((3,4-difluorophenyl)sulfonyl)-1-(4-fluorophenyl)-1,4,5,6,7,8-hexahydro-4aH-benzo[f]indazol-4a-yl)(pyridin-2-yl)methanone]
≤ 0.1 µM	CC(C)(C)S(=O)(=O)[C@H]1CCC2=Cc3c(cnn3-c3ccc(F)cc3)C[C@]2(C(=O)c2ccccn2)C1 [Example 40, ((4aS,6S)-6-(tert-butylsulfonyl)-1-(4-fluorophenyl)-1,4,5,6,7,8-hexahydro-4aH-benzo[f]indazol-4a-yl)(pyridin-2-yl)methanone]
≤ 0.1 µM	O=C(c1ccccn1)[C@]12Cc3cnn(-c4ccc(F)cc4)c3C=C1CC[C@@H](S(=O)(=O)c1ccccc1)C2 [Example 24, ((4aS,6R)-1-(4-fluorophenyl)-6-(phenylsulfonyl)-1,4,5,6,7,8-hexahydro-4aH-benzo[f]indazol-4a-yl)(pyridin-2-yl)methanone]
≤ 0.1 µM	O=C(c1ccccn1)[C@]12Cc3cnn(-c4ccc(F)cc4)c3C=C1CC[C@H](S(=O)(=O)c1ccccc1)C2 [Example 20, ((4aS,6S)-1-(4-fluorophenyl)-6-(phenylsulfonyl)-1,4,5,6,7,8-hexahydro-4aH-benzo[f]indazol-4a-yl)(pyridin-2-yl)methanone]
≤ 0.1 µM	CN([C@H]1CCC2=Cc3c(cnn3-c3ccc(F)cc3)C[C@]2(C(=O)c2ccccn2)C1)S(=O)(=O)c1cccnc1 [Example 84, N-((4aS,6S)-1-(4-fluorophenyl)-4a-picolinoyl-4,4a,5,6,7,8-hexahydro-1H-benzo[f]indazol-6-yl)-N-methylpyridine-3-sulfonamide]
≤ 0.1 µM	O=C(c1ccccn1)[C@]12Cc3cnn(-c4ccc(F)cc4)c3C=C1CC[C@H](S(=O)(=O)c1cccnc1)C2 [Example 53, ((4aS,6S)-1-(4-fluorophenyl)-6-(pyridin-3-ylsulfonyl)-1,4,5,6,7,8-hexahydro-4aH-benzo[f]indazol-4a-yl)(pyridin-2-yl)methanone]

Same assay, conditions: antagonist mode, 10 nM Dexamethasone

IC50	SMILES
≤ 0.1 µM	CN([C@H]1CCC2=Cc3c(cnn3-c3ccc(F)cc3)C[C@]2(C(=O)c2ccc(C3CC3)cn2)C1)S(=O)(=O)c1ccc(Cl)cc1 [Example 146, 4-chloro-N-((4aS,6S)-4a-(5-cyclopropylpicolinoyl)-1-(4-fluorophenyl)-4,4a,5,6,7,8-hexahydro-1H-benzo[f]indazol-6-yl)-N-methylbenzenesulfonamide]
≤ 0.1 µM	O=C(c1cc(Cl)ccn1)[C@]12Cc3cnn(-c4ccc(F)cc4)c3C=C1CC[C@H](N(CC(F)F)S(=O)(=O)c1ccc(Cl)nc1)C2 [Example 352, 6-chloro-N-((4aS,6S)-4a-(4-chloropicolinoyl)-1-(4-fluorophenyl)-4,4a,5,6,7,8-hexahydro-1H-benzo[f]indazol-6-yl)-N-(2,2-difluoroethyl)pyridine-3-sulfonamide]
≤ 0.1 µM	O=C(c1cc(Cl)ccn1)[C@]12Cc3cnn(-c4ccc(F)cc4)c3C=C1CC[C@H](N(CCF)S(=O)(=O)c1ccc(F)cc1)C2 [Example 390, N-((4aS,6S)-4a-(4-chloropicolinoyl)-1-(4-fluorophenyl)-4,4a,5,6,7,8-hexahydro-1H-benzo[f]indazol-6-yl)-4-fluoro-N-(2-fluoroethyl)benzenesulfonamide]
≤ 0.1 µM	Cn1ccc(S(=O)(=O)N([C@H]2CCC3=Cc4c(cnn4-c4ccc(F)cc4)C[C@]3(C(=O)c3ncc(C(F)(F)F)s3)C2)[C@H]2C[C@@H](C#N)C2)n1 [Example 408, N-((1s,3R)-3-cyanocyclobutyl)-N-((4aS,6S)-1-(4-fluorophenyl)-4a-(5-(trifluoromethyl)thiazole-2-carbonyl)-4,4a,5,6,7,8-hexahydro-1H-benzo[f]indazol-6-yl)-1-methyl-1H-pyrazole-3-sulfonamide]
≤ 0.1 µM	CC(C)N([C@H]1CCC2=Cc3c(cnn3-c3ccc(F)cc3)C[C@]2(C(=O)c2cc(F)ccn2)C1)S(=O)(=O)c1cnn(C)n1 [Example 278, N-((4aS,6S)-1-(4-fluorophenyl)-4a-(4-fluoropicolinoyl)-4,4a,5,6,7,8-hexahydro-1H-benzo[f]indazol-6-yl)-N-isopropyl-2-methyl-2H-1,2,3-triazole-4-sulfonamide]
≤ 0.1 µM	O=C(c1cc(C(F)(F)F)ccn1)[C@]12Cc3cnn(-c4ccc(F)cc4)c3C=C1CC[C@H](N(C1CCCC1)S(=O)(=O)c1ccc(F)cc1)C2 [Example 237, N-cyclopentyl-4-fluoro-N-((4aS,6S)-1-(4-fluorophenyl)-4a-(4-(trifluoromethyl)picolinoyl)-4,4a,5,6,7,8-hexahydro-1H-benzo[f]indazol-6-yl)benzenesulfonamide]
≤ 0.1 µM	Cn1cnc(S(=O)(=O)N(CC2CC2)[C@H]2CCC3=Cc4c(cnn4-c4ccc(F)cc4)C[C@]3(C(=O)c3cc(C(F)(F)F)ccn3)C2)n1 [Example 316, N-(cyclopropylmethyl)-N-((4aS,6S)-1-(4-fluorophenyl)-4a-(4-(trifluoromethyl)picolinoyl)-4,4a,5,6,7,8-hexahydro-1H-benzo[f]indazol-6-yl)-1-methyl-1H-1,2,4-triazole-3-sulfonamide]
≤ 0.1 µM	CCn1ccc(S(=O)(=O)N(C)[C@H]2CCC3=Cc4c(cnn4-c4ccc(F)cc4)C[C@]3(C(=O)c3cc(C(F)(F)F)ccn3)C2)n1 [Example 157, 1-ethyl-N-((4aS,6S)-1-(4-fluorophenyl)-4a-(4-(trifluoromethyl)picolinoyl)-4,4a,5,6,7,8-hexahydro-1H-benzo[f]indazol-6-yl)-N-methyl-1H-pyrazole-3-sulfonamide]
≤ 0.1 µM	CCN([C@H]1CCC2=Cc3c(cnn3-c3ccc(F)cc3)C[C@]2(C(=O)c2nccs2)C1)S(=O)(=O)c1ccc(Cl)cc1 [Example 127, 4-chloro-N-ethyl-N-((4aS,6S)-1-(4-fluorophenyl)-4a-(thiazole-2-carbonyl)-4,4a,5,6,7,8-hexahydro-1H-benzo[f]indazol-6-yl)benzenesulfonamide]
≤ 0.1 µM	Cn1cc(S(=O)(=O)N(C2COC2)[C@H]2CCC3=Cc4c(cnn4-c4ccc(F)cc4)C[C@]3(C(=O)c3cc(C(F)(F)F)ccn3)C2)cn1 [Example 213, N-((4aS,6S)-1-(4-fluorophenyl)-4a-(4-(trifluoromethyl)picolinoyl)-4,4a,5,6,7,8-hexahydro-1H-benzo[f]indazol-6-yl)-1-methyl-N-(oxetan-3-yl)-1H-pyrazole-4-sulfonamide]
≤ 0.1 µM	CN([C@H]1CCC2=Cc3c(cnn3-c3ccc(F)cc3)C[C@]2(C(=O)c2cc(C(F)(F)F)ccn2)C1)S(=O)(=O)c1cn(C)cn1 [Example 163, N-((4aS,6S)-1-(4-fluorophenyl)-4a-(4-(trifluoromethyl)picolinoyl)-4,4a,5,6,7,8-hexahydro-1H-benzo[f]indazol-6-yl)-N,1-dimethyl-1H-imidazole-4-sulfonamide]
≤ 0.1 µM	Cn1cc(S(=O)(=O)[C@H]2CCC3=Cc4c(cnn4-c4ccc(F)cc4)C[C@]3(C(=O)c3cc(F)ccn3)C2)cn1 [Example 314, ((4aS,6S)-1-(4-fluorophenyl)-6-((1-methyl-1H-pyrazol-4-yl)sulfonyl)-1,4,5,6,7,8-hexahydro-4aH-benzo[f]indazol-4a-yl)(4-fluoropyridin-2-yl)methanone]
≤ 0.1 µM	Cn1cc(S(=O)(=O)N(C2CCC2)[C@H]2CCC3=Cc4c(cnn4-c4ccc(F)cc4)C[C@]3(C(=O)c3cc(C(F)(F)F)ccn3)C2)cn1 [Example 235, N-cyclobutyl-N-((4aS,6S)-1-(4-fluorophenyl)-4a-(4-(trifluoromethyl)picolinoyl)-4,4a,5,6,7,8-hexahydro-1H-benzo[f]indazol-6-yl)-1-methyl-1H-pyrazole-4-sulfonamide]
≤ 0.1 µM	Cn1ccc(S(=O)(=O)N(CC2CC2)[C@H]2CCC3=Cc4c(cnn4-c4ccc(F)cc4)C[C@]3(C(=O)c3ncc(C4CC4)s3)C2)n1 [Example 187, N-(cyclopropylmethyl)-N-((4aS,6S)-4a-(5-cyclopropylthiazole-2-carbonyl)-1-(4-fluorophenyl)-4,4a,5,6,7,8-hexahydro-1H-benzo[f]indazol-6-yl)-1-methyl-1H-pyrazole-3-sulfonamide]
≤ 0.1 µM	CN([C@H]1CCC2=Cc3c(cnn3-c3ccc(F)cc3)C[C@]2(C(=O)c2nccs2)C1)S(=O)(=O)c1ccc(Cl)cc1 [Example 143, 4-chloro-N-((4aS,6S)-1-(4-fluorophenyl)-4a-(thiazole-2-carbonyl)-4,4a,5,6,7,8-hexahydro-1H-benzo[f]indazol-6-yl)-N-methylbenzenesulfonamide]
